# Data: patent US5668265A, “Bi-directional oligonucleotides that bind thrombin” (Becton Dickinson and Company, priority 1996, dated 1997)
# Experiments:
# [1] = system: human α thrombin; experiment: Competitive binding assay on BIAcore (SPR) against immobilized consensus aptamer; settings: for Kd: 80 nM human α thrombin, 25° C., pH 7.4, competition with immobilized consensus aptamer, read-out: Apparent Kd
# Experimental: Competitive binding assays were used to determine the thrombin binding affinity of the various bi-directional oligonucleotides relative to the affinity of the known thrombin aptamer ^5' GGTTGGTGTGGTTGG^3' (SEQ ID NO:4) (hereafter called the "consensus" aptamer; Bock, L. C. et al, Nature 355, 564 (1992)). The assays were performed on a BIAcore™ biosensor instrument (Pharmacia Biosensor, Uppsala Sweden) by means of Surface Plasmon Resonance (SPR) detection of thrombin bound to consensus aptamer immobilized as described in U.S. patent application Ser. No. 0802,383, now abandoned, filed Aug. 5, 1993 incorporated herein by reference. Competition experiments were conducted at 25° C. by pre-incubating 80 nM human α thrombin for 30 minutes with various concentrations of the bi-directional oligonucleotide to be measured, in a buffer composed of 20 mM Tris-Acetate, 140 mM NaCl, 5 mM KCl, 1 mM CaCl2, 1 mM MgCl2 (pH 7.4). This solution was then passed over the surface containing immobilized consensus aptamer at a flow rate of 3 μL per minute for 10 minutes. The steady state response was measured as a function of bi-directional oligonucleotide concentration. The competition data were analyzed assuming that thrombin and the solution phase oligonucleotide bind monovalently and that thrombin molecules bound to a solution phase oligonucleotide are prohibited from binding to the immobilized consensus aptamer.
# In this analysis, the steady state response in the presence of oligonucleotide is proportional to the surface concentration of bound thrombin, and apparent equilibrium dissociation constants (Kd 's) were determined from the variation in SPR response as a function of bi-directional oligonucleotide concentration. (Data were fit to eqn 31 of Pisarchick, M. L. and Thompson, N. L., Biophys J. 58, 1235, to yield the Kd values. In this analysis, it was assumed that the concentration nucleic acid ligand free in solution is equal to the total nucleic acid ligand concentration). The values determined are shown below (SEQ ID NO:4): […]
# [2] = system: 3'-exonuclease (Phosphodiestase I; C. adamanteus Venon); format: in vitro ADME; settings: 0.005 units exonuclease, 37° C., pH 8.8; for Approximate Half-Life: estimated by visual inspection of autoradiogram
# Experimental: It is expected that the 3'--3' linked oligonucleotides will show similar resistance to 3'-exonucleases found in
# The various bi-directional nucleic acid ligands to be tested were first labeled with radioactive (^32 p) phosphate as follows:
# 200 pmol of each oligonucleotide was incubated at 37° C. for 30 minutes in 20 μl of a solution containing 3.0 mM Tricine (pH 7.6), 50 mM TRIS-HCl (pH8), 10 mM MgCl2, 5 mM DTT, 1.0 μM γ-^32 P-ATP (3000 Ci/mmol, 10 mCi/mL), 10 units T4 polynucleotide kinase (New England Biolabs). This labeling reaction was then terminated by heating the mixture at 95° C. for 3 minutes.
# To test the resistance of the ^32 P-labeled oligonucleotides to the 3' exonuclease, the following reaction mixtures were assembled: Each bi-directional nucleic acid ligand (25 pmole) was dissolved in 100 μl containing 55 mM Tris-HCl, 55 mM NaCl, 7.5 mM MgCl2 (all at pH8.8). To this mixture 0.005 units of the exonuclease (Phosphodiestase I; C. adamanteus Venon; Pharmacia Biotech, Inc.) was added and the sample was mixed and incubated at 37° C. Five μL aliquots of each reaction were removed at 3, 10, 30, 60, and 100 minutes. The reactions were quenched by placing the aliquots into 25 μL solutions containing 50% (w/v) urea, 20 mM Na2 EDTA, and 0.05% bromophenol blue/zylene cylanol and heating the sample to 90° C. for 2 minutes. The reaction products were analyzed by electrophoretic separation on a denaturing polyacrylamide gel and subsequent autoradiagraphy of the gel.
# The half-lives of the various bi-directional nucleic acid ligands under these conditions were estimated by visual inspection of autoradiogram (SEQ ID NO:4): […]
# [3] = system: bovine thrombin; experiment: Clot time assay in platelet-poor porcine plasma with added thrombin; format: biochemical; settings: room temperature, FIG. 2
# Experimental: PPP was prepared by separating cells from […] by centrifugation of whole citrated porcine blood (Environmental Diagnostics Inc.). Approximately 0.5 ml of PPP was added to 12×75 mm polystyrene test tubes (FALCON, Becton Dickinson) and equilibrated to room temperature in a water bath for 15 minutes. Following equilibration, 25 μl of 250 μg/ml bovine thrombin (Sigma) in saline was added along with varying amounts of bi-directional nucleic acid ligand compounds prepared in Example 3 (specifically Compound #5 and Compound #9) in saline and sufficient saline diluent to bring the total volume to 0.6 ml. At this time 50 μl of 0.4M CaCl2 was added to initiate coagulation and the tubes were quickly capped. Tube contents were mixed on a laboratory inverting mixer and time of clotting noted for each tube type.
Substance,Kd [1],Approximate Half-Life [2],further results
"5'-GGTTGGT-3' (DNA, backbone not given here) [a single copy of this sequence, reference compound]",,,thrombin affinity (in words) ([1]; thrombin): does not have high affinity for thrombin
^5' GGTTGGTG^3' -p-^3' TGGTTGG^5' [Compound 1],224 nM,,
"^5' GGTTGGTGTGGTTGG^3' [Compound 10, reference compound]",6 nM,< 3 min,time to complete degradation by the 3'-exonuclease [2]: less than 3 minutes
"^5' GGTTGGTT^3' (DNA, backbone not given here) [Compound 12, single oligonucleotide segment, control, reference compound]",1500 nM,,
"^5' GGTTGGT^3' -L1 -^3' TGGTTGG^5' (DNA, backbone not given here; two strands joined 3'-3' through linker L1, further chemistry not fully specified) [Compound 5, 3'-3' bi-directional oligonucleotide linked through hexaethylene glycol phosphodiester]",9 nM,30 min,Ka (thrombin binding affinity) ([1]; thrombin): > 10^7 M^-1; inhibition of exogenous thrombin in plasma (clot time) [3]: inhibition of exogenous thrombin in plasma
^5' GGTTGGTT^3' -p-^3' TTGGTTGG^5' [Compound 2],312 nM,,
^3' GGTTGGTT^5' -p-^5' TTGGTTGG^3' [Compound 4],25 nM,,
^5' GGTTGGTTG^3' -p-^3' TTGGTTGG^5' [Compound 3],11 nM,> 100 min,
"^5' GGTTGGTT^3' -L1 -^3' TTGGTTGG^5' (DNA, backbone not given here; two strands joined 3'-3' by hexaethylene glycol phosphodiester linker, further chemistry not fully specified) [Compound 6, 3'-3' bi-directional oligonucleotide linked through hexaethylene glycol phosphodiester]",10 nM,,thrombin affinity (in words) ([1]; thrombin): high affinity for thrombin; inhibition of exogenous thrombin in plasma (clot time) [3]: inhibits thrombin in porcine plasma
